Reference: patent publication US10597388B2, “Pyridazinone herbicides” (FMC CORPORATION, priority 2014, dated 2020)

What was measured:
Assay in all cases: Test D controlled growth environment herbicide test, pre- and postemergence
Assay type in all cases: in vivo
[1] = test system: barley, spring (spring barley, Hordeum vulgare)
Summary of the method: (§1)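 Rating is visual, 0–100 scale (100 = complete control), made against untreated plants 14–21 d after treatment in controlled growth conditions. Postemergence sprays went onto 1- to 4-leaf plants in peat medium; preemergence sprays onto silt loam after sowing; formulation included a surfactant.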

[2] = test system: radish, wild (wild radish, Raphanus raphanistrum)
Summary of the method: as §1

[3] = test system: lambsquarters (Chenopodium album)
Summary of the method: as §1

[4] = test system: pigweed (Amaranthus retroflexus)
Summary of the method: as §1

kochia (Kochia scoparia) = test system: kochia (Kochia scoparia)
Summary of the method: as §1

[5] = test system: galium (catchweed bedstraw, Galium aparine)
Summary of the method: as §1

[6] = test system: buckwheat, wild (wild buckwheat, Polygonum convolvulus)
Summary of the method: as §1

[7] = test system: field poppy (Papaver rhoeas)
Summary of the method: as §1

[8] = test system: canarygrass (Phalaris minor)
Summary of the method: as §1

[9] = test system: field violet (Viola arvensis)
Summary of the method: as §1

[10] = test system: barley, winter (winter barley, Hordeum vulgare)
Summary of the method: as §1

[11] = test system: chamomile (scentless chamomile, Matricaria inodora)
Summary of the method: as §1

[12] = test system: bluegrass (annual bluegrass, Poa annua)
Summary of the method: as §1

[13] = test system: windgrass (Apera spica-venti)
Summary of the method: as §1

[14] = Postemergence, 31 g ai/ha, scale 0 to 100 (0 no effect, 100 complete control)
[15] = Postemergence, 125 g ai/ha, visual rating on scale 0 (no effect) to 100 (complete control), 14 to 21 d
[16] = Postemergence, 250 g ai/ha, scale 0 to 100 (0 no effect, 100 complete control)
[17] = Preemergence, 62 g ai/ha, scale 0 to 100 (0 no effect, 100 complete control)
[18] = Preemergence, 125 g ai/ha, scale 0 to 100 (0 no effect, 100 complete control)
[19] = Preemergence, 250 g ai/ha, scale 0 to 100, 0 no effect, 100 complete control
[20] = postemergence, 62 g ai/ha, scale 0 to 100, 0 no effect, 100 complete control

Cc1nn(C)c(=O)c(-c2c(C)sc3ccc(Br)cc23)c1O [Compound 22]
Plant response rating, Barley, Spring [1, 14]: 0
Plant response rating, Barley, Spring [1, 15]: 15
Plant response rating, Barley, Spring [1, 16]: 15
Plant response rating (scale of 0 to 100), Barley, Spring ([1]; Preemergence, 31 g ai/ha): 0
Plant response rating, Barley, Spring [1, 17]: 0
Plant response rating, Barley, Spring [1, 18]: 0
Barley, Spring plant response rating [1, 19]: 0
Plant response rating, Barley, Spring [1, 20]: 0
Radish, Wild plant response rating [2, 14]: 85
Plant response rating, Radish, Wild [2, 15]: 100
Plant response rating, Radish, Wild [2, 16]: 85
Plant response rating (scale of 0 to 100), Radish, Wild ([2]; Preemergence, 31 g ai/ha): 0
Plant response rating, Radish, Wild [2, 17]: 25
Plant response rating, Radish, Wild [2, 18]: 70
Plant response rating, Radish, Wild [2, 19]: 80
Plant response rating, Radish, Wild [2, 20]: 75
Lambsquarters plant response rating [3, 14]: 80
Plant response rating, Lambsquarters [3, 15]: 95
Plant response rating, Lambsquarters [3, 16]: 98
Plant response rating (scale of 0 to 100), Lambsquarters ([3]; Preemergence, 31 g ai/ha): 100
Plant response rating, Lambsquarters [3, 17]: 100
Plant response rating, Lambsquarters [3, 18]: 100
Plant response rating, Lambsquarters [3, 19]: 100
Plant response rating, Lambsquarters [3, 20]: 85
Pigweed plant response rating [4, 14]: 85
Plant response rating, Pigweed [4, 15]: 98
Plant response rating, Pigweed [4, 16]: 100
Plant response rating (scale of 0 to 100), Pigweed ([4]; Preemergence, 31 g ai/ha): 100
Plant response rating, Pigweed [4, 17]: 98
Plant response rating, Pigweed [4, 18]: 98
Plant response rating, Pigweed [4, 19]: 100
Plant response rating, Pigweed [4, 20]: 95
Kochia plant response rating (kochia (Kochia scoparia); [14]): 80
Plant response rating, Kochia (kochia (Kochia scoparia); [15]): 100
Plant response rating, Kochia (kochia (Kochia scoparia); [16]): 100
Plant response rating (scale of 0 to 100), Kochia (kochia (Kochia scoparia); Preemergence, 31 g ai/ha): 35
Plant response rating, Kochia (kochia (Kochia scoparia); [17]): 35
Plant response rating, Kochia (kochia (Kochia scoparia); [18]): 50
Plant response rating, Kochia (kochia (Kochia scoparia); [19]): 75
Plant response rating, Kochia (kochia (Kochia scoparia); [20]): 95
Galium plant response rating [5, 14]: 90
Plant response rating, Galium [5, 15]: 98
Plant response rating, Galium [5, 16]: 98
Plant response rating (scale of 0 to 100), Galium ([5]; Preemergence, 31 g ai/ha): 10
Plant response rating, Galium [5, 17]: 65
Plant response rating, Galium [5, 18]: 75
Plant response rating, Galium [5, 19]: 85
Plant response rating, Galium [5, 20]: 90
Buckwheat, Wild plant response rating [6, 14]: 90
Plant response rating, Buckwheat, Wild [6, 15]: 100
Plant response rating, Buckwheat, Wild [6, 16]: 100
Plant response rating (scale of 0 to 100), Buckwheat, Wild ([6]; Preemergence, 31 g ai/ha): 20
Plant response rating, Buckwheat, Wild [6, 17]: 20
Plant response rating, Buckwheat, Wild [6, 18]: 85
Plant response rating, Buckwheat, Wild [6, 19]: 95
Plant response rating, Buckwheat, Wild [6, 20]: 98
Field Poppy plant response rating [7, 14]: 75
Plant response rating, Field Poppy [7, 15]: 100
Plant response rating, Field Poppy [7, 16]: 100
Plant response rating (scale of 0 to 100), Field Poppy ([7]; Preemergence, 31 g ai/ha): 0
Plant response rating, Field Poppy [7, 17]: 0
Plant response rating, Field Poppy [7, 18]: 100
Plant response rating, Field Poppy [7, 19]: 100
Plant response rating, Field Poppy [7, 20]: 85
Canarygrass plant response rating [8, 14]: 20
Plant response rating, Canarygrass [8, 15]: 40
Plant response rating, Canarygrass [8, 16]: 65
Plant response rating (scale of 0 to 100), Canarygrass ([8]; Preemergence, 31 g ai/ha): 25
Plant response rating, Canarygrass [8, 17]: 35
Plant response rating, Canarygrass [8, 18]: 85
Plant response rating, Canarygrass [8, 19]: 90
Plant response rating, Canarygrass [8, 20]: 35
Field Violet plant response rating [9, 14]: 70
Plant response rating, Field Violet [9, 15]: 75
Plant response rating, Field Violet [9, 16]: 95
Plant response rating (scale of 0 to 100), Field Violet ([9]; Preemergence, 31 g ai/ha): 20
Plant response rating, Field Violet [9, 17]: 65
Plant response rating, Field Violet [9, 18]: 80
Plant response rating, Field Violet [9, 19]: 100
Plant response rating, Field Violet [9, 20]: 70
Plant response rating, Barley, Winter [10, 14]: 0
Plant response rating, Barley, Winter [10, 15]: 0
Plant response rating, Barley, Winter [10, 16]: 5
Plant response rating (scale of 0 to 100), Barley, Winter ([10]; Preemergence, 31 g ai/ha): 0
Plant response rating, Barley, Winter [10, 17]: 0
Plant response rating, Barley, Winter [10, 18]: 0
Barley, Winter plant response rating [10, 19]: 0
Plant response rating, Barley, Winter [10, 20]: 0
Chamomile plant response rating [11, 14]: 80
Plant response rating, Chamomile [11, 15]: 85
Plant response rating, Chamomile [11, 16]: 100
Plant response rating (scale of 0 to 100), Chamomile ([11]; Preemergence, 31 g ai/ha): 95
Plant response rating, Chamomile [11, 17]: 100
Plant response rating, Chamomile [11, 18]: 100
Plant response rating, Chamomile [11, 19]: 100
Plant response rating, Chamomile [11, 20]: 80
Bluegrass plant response rating [12, 14]: 10
Plant response rating, Bluegrass [12, 15]: 25
Plant response rating, Bluegrass [12, 16]: 25
Plant response rating (scale of 0 to 100), Bluegrass ([12]; Preemergence, 31 g ai/ha): 0
Plant response rating, Bluegrass [12, 17]: 30
Plant response rating, Bluegrass [12, 18]: 30
Bluegrass plant response rating [12, 19]: 40
Plant response rating, Bluegrass [12, 20]: 15
Windgrass plant response rating [13, 14]: 15
Plant response rating, Windgrass [13, 15]: 35
Plant response rating, Windgrass [13, 16]: 55
Plant response rating (scale of 0 to 100), Windgrass ([13]; Preemergence, 31 g ai/ha): 0
Plant response rating, Windgrass [13, 17]: 20
Plant response rating, Windgrass [13, 18]: 70
Plant response rating, Windgrass [13, 19]: 80
Plant response rating, Windgrass [13, 20]: 20
